In assay [1] the target is T1, Human recombinant MMP-9 (Homo sapiens, UniProt P14780).
T1 construct: made in house; host or cells: MMP-9-transfected HT1080 cells (spent media)
Briefly: In vitro MMP inhibition analysis (fluorogenic peptide substrate), MMP-9. In kind it is biochemical. Conditions: human recombinant enzyme; 4 μM substrate (A); apparent Ki without substrate correction. How it is done: (§1) Several compounds and salts were analyzed in an in vitro assay to determine their ability to inhibit the MMP cleavage of peptide substrates. Inhibition constant (Ki) were calculated from the assayed compound-MMP interactions.
(§2) Human recombinant MMP-1, MMP-2, MMP-9, MMP-13, and MMP-14 were used in this assay. All enzymes were prepared in Assignee's laboratories following usual laboratory procedures. Protocols for the preparation and use of these enzymes are available in the scientific literature. See, e.g., Enzyme Nomenclature (Academic Press, San Diego, Calif., 1992) (and the citations therein). See also, Freije et al., J. Biol. Chem., 269(24), 16766-16773 (1994).
The MMP-9 proenzyme was purified by gelatin Sepharose chromatography from spent media of MMP-9-transfected HT1080 cells provided by Dr. Howard Welgus of Washington University (St. Louis, Mo.).
(§3) All MMPs were activated using 4-aminophenylmercuric acetate (“APMA”, Sigma Chemical, St. Louis, Mo.) or trypsin. MMP-9 also was activated using human recombinant MMP-3 (purified in Assignee's laboratory following standard cloning and purification techniques).
(§4) The following fluorogenic, methoxycoumarin-containing polypeptide substrate (A) was used in the MMP inhibition assays:
(§5) MCA-ArgProLeuGlyLeuDpaAlaArgGluArgNH2 (A)
(§6) “MCA” is 7-methoxycoumarin-4-yl acetyl. Substrate (A) was prepared Assignee's laboratory. In the absence of MMP inhibitory activity, the substrate is cleaved at the Gly-Leu peptide bond. This cleavage separates the highly fluorogenic peptide from the 2,4-dinitrophenyl quencher, thus resulting in increase of fluorescent intensity.
(§7) The stock solutions of the assayed compounds and salts were prepared in 1% dimethyl sulfoxide (DMSO). These stock solutions were diluted in Buffer A (100 mM Tris-HCl, 100 mM NaCl, 10 mM CaCl2, 0.05% polyoxyethylene 23 lauryl ether, pH 7.5) to obtain solutions with different compound concentrations, i.e., assay solutions with different concentrations of the assayed MMP inhibitory compound. The experiment controls contained the same amount of Buffer A/DMSO as the assayed sample, but contained none of the tested compound or salt.
(§8) The assays from which the Ki determinations were made were performed as follows. The assayed compound samples were incubated in separate wells of untreated white polystyrene plates (Nunc Nalgene International, Rochester, N.Y.), and analyzed on a Tecan SpectraFlour Plus plate reader. The excitation wavelength was 330 nm, and the emission wavelength -420 nm. All samples (assayed compounds and controls) were incubated in separate plate wells at room temperature for 1 hr in the presence of 4 μM of MMP substrate (A). In the absence of MMP inhibitory activity, substrate (A) was cleaved at the Gly-Leu bond resulting in an increase of relative fluorescence. Inhibition was observed as a reduced rate of this increase in relative fluorescence. […] This protocol is a modification of method by Knight et al., FEBS Lett., 296(3), 263-266 (1992). Apparent inhibitory constants were determined by non-linear regression of reaction velocity as a function of inhibitor and enzyme concentration using Morrison's equation, as described by Kuzmic, P., et al., Anal. Biochem., 286(1):45-50 (2000). Modifications were made in the non-linear regression method to allow a common control reaction rate and effective enzyme concentration to be shared between all dose-response relationships on a given assay plate. Since the substrate concentration was chosen to be at or below the Km, the apparent Ki's from this analysis were reported as Ki's without correction for the influence of substrate.
The above protocols were used to determine MMP inhibition Ki constants for the compounds in Examples 1, 2, and 4-42 above. All Ki values in Table 3 are given in nM units.

Assay [2] deals with T2, Human recombinant MMP-13 (Homo sapiens, UniProt P45452).
T2 construct: made in house; host or cells: baculovirus / insect cells
The assay can be described thus: In vitro MMP inhibition analysis (fluorogenic peptide substrate), MMP-13. It is filed as biochemical. Conditions: human recombinant enzyme; 4 μM substrate (A); apparent Ki without substrate correction. How it is done: as §1, §2
The MMP-13 was obtained as a proenzyme from a full-length cDNA clone using baculovirus, as described by V. A. Luckow, “Insect Cell Expression Technology,” Protein Engineering: Principles and Practice, pp. 183-218 (edited by J. L. Cleland et al., Wiley-Liss, Inc., 1996). The expressed proenzyme was first purified over a heparin agarose column, and then over a chelating zinc chloride column. The proenzyme was then activated by APMA for use in the assay. […] See also, O'Reilly et al, Baculovirus Expression Vectors: A Laboratory Manual (W. H. Freeman and Co., New York, N.Y., 1992). See also, King et al., The Baculovirus Expression System: A Laboratory Guide (Chapman & Hall, London, England, 1992).
as §3, §4, §5, §6, §7
as §8, with “Modifications were made in the non-linear regression method to allow a common control reaction rate and effective enzyme concentration to be shared between all dose-response relationships on a given assay plate.” left out
All Ki values in Table 3 are given in nM units.

33 molecules from patent publication US20040142979A1, “Heteroarylsulfonylmethyl hydroxamic acids and amides and their use as protease inhibitors” (priority 2002, published 2004) can be followed below.

T1 sequence (P14780 107-707 limits assumed): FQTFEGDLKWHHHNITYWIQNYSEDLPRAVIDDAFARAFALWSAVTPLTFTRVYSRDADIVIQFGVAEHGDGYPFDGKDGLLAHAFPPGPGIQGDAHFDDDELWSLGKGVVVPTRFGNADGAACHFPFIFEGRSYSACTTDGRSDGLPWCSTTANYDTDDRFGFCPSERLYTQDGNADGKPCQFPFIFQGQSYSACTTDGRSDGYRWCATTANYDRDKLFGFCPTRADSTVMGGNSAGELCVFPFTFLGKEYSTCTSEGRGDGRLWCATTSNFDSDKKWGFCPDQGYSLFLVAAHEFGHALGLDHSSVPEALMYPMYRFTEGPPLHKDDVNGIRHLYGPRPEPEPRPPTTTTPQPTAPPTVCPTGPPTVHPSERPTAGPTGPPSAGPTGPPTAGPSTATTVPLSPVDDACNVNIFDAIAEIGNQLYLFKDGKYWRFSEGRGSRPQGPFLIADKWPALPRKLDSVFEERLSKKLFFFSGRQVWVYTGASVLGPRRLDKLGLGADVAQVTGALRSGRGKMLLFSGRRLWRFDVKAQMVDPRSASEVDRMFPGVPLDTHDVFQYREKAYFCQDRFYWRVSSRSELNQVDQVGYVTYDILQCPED

Consider `O=C(NO)C1(S(=O)(=O)c2ccc(-c3ccc(OC(F)(F)C(F)F)cc3)nc2)CCOCC1` [Example 47], for which the Ki in assay [1] is 1.53 nM; in assay [2], 0.306 nM.

Turning to `O=C(NO)C1(S(=O)(=O)c2ccc(-c3ccc(OC(F)(F)C(F)F)cc3)nc2)CCOCC1` [Example 48], the Ki came to 1.06 nM in assay [1] and 0.192 nM in assay [2].

Consider `O=C(NO)C1(S(=O)(=O)c2ccc(-c3ccc(OCC(F)(F)F)cc3)nc2)CCOCC1` [Example 46], for which the results for the Ki in assay [1] and in assay [2] were 0.988 nM and 0.169 nM, respectively.

For `COCCN1CCC(C(=O)NO)(S(=O)(=O)c2ccc3nc(-c4ccc(OC(F)(F)F)cc4)sc3c2)CC1` [Example 63], the values for the Ki in assay [1] and in assay [2] were 0.624 nM and 0.309 nM, respectively.

For `O=C(NO)C1(S(=O)(=O)c2ccc(-c3ccc(C(F)(F)F)cn3)s2)CCOCC1` [Example 50], the Ki in assay [1] turned out to be 133 nM; in assay [2] it was 10.3 nM.

In the case of `CCCc1ccc(-c2nc3ccc(S(=O)(=O)C4(C(=O)NO)CCOCC4)cc3s2)cc1` [Example 53], the Ki in assay [1] stood at 12.8 nM; in assay [2], 0.314 nM.

Take `CN(C(=O)c1ccc(-c2ccc(S(=O)(=O)C3(C(=O)NO)CCOCC3)cn2)cc1)c1ccccc1` [Example 78]: the values for the Ki in assay [1] and in assay [2] were 1290 nM and 447 nM, respectively.

Regarding `O=C(NO)C1(S(=O)(=O)c2ccc3nc(-c4ccc(Cl)s4)sc3c2)CCOCC1` [Example 59], the Ki in assay [1] amounted to 5.09 nM; in assay [2], 0.588 nM.

Regarding `O=C(Cc1ccc(-c2ccc(S(=O)(=O)C3(C(=O)NO)CCOCC3)cn2)cc1)N1CCCCC1` [Example 72], the figures for the Ki in assay [1] and in assay [2] were 7770 nM and 1.59 nM, respectively.

Take `O=C(NO)C1(S(=O)(=O)c2ccc(-c3ccc(OC(F)(F)F)cc3)nc2)CCOCC1` [Example 84]: the Ki in assay [1] was determined as 4.26 nM; in assay [2], 0.79 nM.

For the molecule `O=C(NO)C1(S(=O)(=O)c2ccc3c(c2)sc2nc(-c4ccccc4)cn23)CCOCC1` [Example 83], the Ki in assay [1] is 2040 nM; in assay [2], 577 nM.

In the case of `O=C(NO)C1(S(=O)(=O)c2ccc3nc(-n4cnc(-c5ccccc5)c4)sc3c2)CCOCC1` [Example 64], the Ki stood at 799 nM in assay [1] and 22.1 nM in assay [2].

Turning to `O=C(NO)C1(S(=O)(=O)c2ccc3nc(-c4ccc(F)c(F)c4)sc3c2)CCOCC1` [Example 60], the figures for the Ki in assay [1] and in assay [2] were 14.1 nM and 1.54 nM, respectively.

Take `O=C(NO)C1(S(=O)(=O)c2ccc(-c3ccc(CCC(F)(F)F)cc3)nc2)CCOCC1` [Example 68]: the Ki in assay [1] was 2.82 nM; in assay [2], 0.721 nM.

For `CCCCNC(=O)Cc1ccc(-c2ccc(S(=O)(=O)C3(C(=O)NO)CCOCC3)cn2)cc1` [Example 73], the Ki in assay [1] is 2220 nM; in assay [2], 18.8 nM.

For `O=C(NO)C1(S(=O)(=O)c2ccc(-c3ccc(CCC(F)(F)C(F)(F)F)cc3)nc2)CCOCC1` [Example 69], the Ki in assay [1] turned out to be 8.93 nM; in assay [2], 0.531 nM.

In the case of `O=C(NO)C1(S(=O)(=O)c2ccc3nc(-c4ccc(OC(F)(F)F)cc4)sc3c2)CCOCC1` [Example 51], the Ki in assay [1] was found to be 0.636 nM; in assay [2], 0.275 nM.

Regarding `CC(C)CN(C)C(=O)Cc1ccc(-c2ccc(S(=O)(=O)C3(C(=O)NO)CCOCC3)cn2)cc1` [Example 71], the Ki was over 10000 nM in assay [1] and 1.93 nM in assay [2].

For the molecule `CCOc1ccc(-c2nc3ccc(S(=O)(=O)C4(C(=O)NO)CCOCC4)cc3s2)cc1` [Example 66], the Ki stood at 3.37 nM in assay [1] and 0.082 nM in assay [2].

In the case of `O=C(NO)C1(S(=O)(=O)c2ccc3nc(-c4ccc(F)cc4F)sc3c2)CCOCC1` [Example 61], the Ki amounted to 21.5 nM in assay [1] and 2.94 nM in assay [2].

For the molecule `CCc1ccc(-c2nc3ccc(S(=O)(=O)C4(C(=O)NO)CCOCC4)cc3s2)cc1` [Example 58], the results for the Ki in assay [1] and in assay [2] were 1.06 nM and 0.336 nM, respectively.

Take `CC(C)CN(C)C(=O)c1ccc(-c2ccc(S(=O)(=O)C3(C(=O)NO)CCOCC3)cn2)cc1` [Example 82]: the Ki in assay [1] came out at 894 nM; in assay [2], 229 nM.

Consider `CCCCc1ccc(C(=O)C2CCN(c3nc4ccc(S(=O)(=O)C5(C(=O)NO)CCOCC5)cc4s3)CC2)s1` [Example 52], for which the Ki was determined as 837 nM in assay [1] and 1.58 nM in assay [2].

For `O=C(NO)C1(S(=O)(=O)c2ccc3nc(-c4ccsc4)sc3c2)CCOCC1` [Example 62], the Ki in assay [1] turned out to be 40.5 nM; in assay [2], 1.36 nM.

For the molecule `CN(C(=O)c1ccc(-c2ccc(S(=O)(=O)C3(C(=O)NO)CCOCC3)cn2)cc1)c1ccc(OC(F)(F)F)cc1` [Example 81], the results for the Ki in assay [1] and in assay [2] were 3400 nM and 264 nM, respectively.

On to `CCCCCc1ccc(-c2ccc(S(=O)(=O)C3(C(=O)NO)CCOCC3)cn2)cc1` [Example 45], for which the Ki in assay [1] was determined as 8.96 nM; in assay [2], 1.19 nM.

For the molecule `O=C(NO)C1(S(=O)(=O)c2ccc3nc(-c4ccc(SC(F)(F)F)cc4)sc3c2)CCOCC1` [Example 67], the Ki in assay [1] is 0.471 nM; in assay [2], 0.293 nM.

As for `CCCCN(C)C(=O)Cc1ccc(-c2ccc(S(=O)(=O)C3(C(=O)NO)CCOCC3)cn2)cc1` [Example 74], the Ki stood at 4930 nM in assay [1] and 1.91 nM in assay [2].

On to `CCCCc1ccc(C(=O)C2CCN(c3ccc(S(=O)(=O)C4(C(=O)NO)CCOCC4)cn3)CC2)s1` [Example 70], for which the Ki was over 10000 nM in assay [1] and 1.8 nM in assay [2].

As for `O=C(NO)C1(S(=O)(=O)c2ccc(-c3ccc(CCC(F)(F)C(F)(F)F)cn3)s2)CCOCC1` [Example 49], the Ki in assay [1] came to 10.2 nM; in assay [2], 0.822 nM.

With `O=C(NO)C1(S(=O)(=O)c2ccc3nc(-c4cccc(C(F)(F)F)c4)sc3c2)CCOCC1` [Example 55], the Ki in assay [1] was 3310 nM; in assay [2], 177 nM.

In the case of `CCCCNC(=O)c1ccc(-c2ccc(S(=O)(=O)C3(C(=O)NO)CCOCC3)cn2)cc1` [Example 76], the Ki turned out to be 428 nM in assay [1] and 5.59 nM in assay [2].

With `O=C(NO)C1(S(=O)(=O)c2ccc(-c3ccc(OC(F)(F)C(F)F)cc3)s2)CCOCC1` [Example 44], the Ki in assay [1] was determined as 0.354 nM; in assay [2], 0.134 nM.
